Experimental findings from patent publication US20240018150A1 are described below.

The subject of assay [1] is Ba/F3-BCR-BTK-C481S cells. The experiment in a line: Cell assay, in-vitro inhibition of Ba/F3-BCR-BTK-C481S cells (CellTiter-Glo). The format is cell-based. As to conditions: 2000 cells/well, 72 hrs, read-out: Ba/F3-BCR-BTK-C481S (IC50, in-vitro inhibitory test on cells). The protocol: (§1) Plating: The cells were suspended in serum-free medium and counted with automatic cell counter. According to the seeding density, the cell suspension was diluted to the required density. 95 μL cell (2000 cells/well) was added to each well, and incubated at 5% CO2 and 37° C.
(§2) Preparation of compound solution: The compound was prepared into a diluted solution of 1000× final concentration with dimethyl sulfoxide. The test concentrations of the compound were 10000, 3333.33, 1111.11, 370.37, 123.46, 41.15, 13.72, 4.57, 1.52, and 0.51 nM. The compound was diluted with the culture medium to prepare a compound solution of 20× final concentration. 5 uL of the compound solution was added to each well, and the same volume of dimethyl sulfoxide was added to the control well. The cells were incubated at 37° C. and 5% CO2 for 72 hrs.
(§3) Detection: The cell plate equilibrated to room temperature, 40 μl of CellTiter-Glo® reagent was added to each well, shaken for 2 min, allowed to stand for 10 min, and detected with SpectraMax Paradigm.
(§4) Data Analysis • (1) The IC50 value was calculated using GraphPad Prism 5. • (2) % Inh=(Max signal−Compound signal)/(Max signal−Min signal)×100. • (3) Max signal was a value of the positive control well in which only DMSO of the same volume with the compound solution was present. • (4) Min signal was a value of the negative control well in which only the culture medium was present.
(ATP-based viability assays read luminescence as a measure of living cells.)

A further assay relates to TMD8 cells. Briefly: Cell assay, in-vitro inhibition of TMD8 cells (CellTiter-Glo). The class given is cell-based. The settings on record: Homo sapiens, 2000 cells/well, 72 hrs, read-out: TMD8 (IC50, in-vitro inhibitory test on cells). The procedure:
as §1, §2, §3, §4

A further assay concerns the target BTK kinase (Homo sapiens, UniProt Q06187). The experiment in a line: Inhibitory activity test on BTK kinase (electrophoretic mobility shift assay). The class given is biochemical. As to conditions: Caliper EZ ReaderII, enzyme and compound 10 min at room temperature, read-out: BTK (IC50, in-vitro inhibitory test on kinase).

Sequence of BTK kinase (Q06187 whole entry): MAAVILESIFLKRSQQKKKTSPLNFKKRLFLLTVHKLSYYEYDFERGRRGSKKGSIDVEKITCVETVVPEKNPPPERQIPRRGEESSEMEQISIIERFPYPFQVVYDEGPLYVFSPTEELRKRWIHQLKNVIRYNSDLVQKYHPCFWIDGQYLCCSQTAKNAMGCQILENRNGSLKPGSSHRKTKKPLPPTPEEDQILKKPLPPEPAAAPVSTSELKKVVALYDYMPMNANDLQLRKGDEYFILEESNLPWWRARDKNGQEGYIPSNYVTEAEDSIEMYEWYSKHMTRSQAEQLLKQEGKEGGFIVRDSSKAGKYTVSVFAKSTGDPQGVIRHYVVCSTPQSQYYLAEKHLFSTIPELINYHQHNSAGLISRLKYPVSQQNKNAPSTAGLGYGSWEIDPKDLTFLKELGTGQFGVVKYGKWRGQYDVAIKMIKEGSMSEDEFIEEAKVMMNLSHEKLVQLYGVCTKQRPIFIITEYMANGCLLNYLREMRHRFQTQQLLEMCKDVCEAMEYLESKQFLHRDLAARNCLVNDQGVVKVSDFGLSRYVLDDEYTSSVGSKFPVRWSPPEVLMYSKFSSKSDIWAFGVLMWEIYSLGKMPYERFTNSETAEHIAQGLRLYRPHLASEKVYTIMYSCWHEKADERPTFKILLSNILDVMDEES

Turning to `O=C(c1ccc(Oc2ccccc2)cc1Cl)c1c[nH]c2ncnc(N[C@@H]3CC[C@@H](CO)OC3)c12` [ARQ531, reference compound], the IC50 in assay [1] came to 447 nM; in the assay with TMD8 cells, 111 nM. `O=C(c1ccc(Oc2ccccc2)cc1Cl)c1c[nH]c2nccc(N[C@H]3CC[C@H](C(=O)O)CC3)c12` [Compound I-5, (1r, 4r)-4-((3-(2-chloro-4-phenoxybenzoyl)-1H-pyrrolo[2,3-b]pyridin-4-yl)amino)cyclohexane-1-carboxylic acid]: the IC50 on BTK kinase worked out at 9 nM.

For the molecule `O=C(c1ccc(Oc2ccccc2)cc1Cl)c1c[nH]c2nccc(N[C@H]3CC[C@@H](C(=O)O)CC3)c12` [Compound I-6, (1s, 4s)-4-((3-(2-chloro-4-phenoxybenzoyl)-1H-pyrrolo[2,3-b]pyridin-4-yl)amino)cyclohexane-1-carboxylic acid], the IC50 on BTK kinase was 2.7 nM. On to `O=C(c1ccc(Oc2ccccc2)cc1)c1c[nH]c2nccc(N[C@H]3CC[C@@H](C(=O)O)CC3)c12` [Compound I-8, (1s, 4s)-4-((3-(4-phenoxybenzoyl)-1H-pyrrolo[2,3-b]pyridin-4-yl)amino)cyclohexane-1-carboxylic acid], for which the IC50 at BTK kinase was determined as 7.1 nM. Same read-out and setting: next, `O=C(c1ccc(Oc2ccccc2)cc1Cl)c1c[nH]c2nccc(N[C@H]3C[C@@H](C(=O)O)C3)c12` [Compound I-11, (1s, 3s)-3-((3-(2-chloro-4-phenoxybenzoyl)-1H-pyrrolo[2,3-b]pyridin-4-yl)amino)cyclobutane-1-carboxylic acid]: 6.2 nM; `O=C(c1ccc(Oc2ccccc2)cc1Cl)c1c[nH]c2nccc(NC3CCNCC3)c12` [Compound I-22, (2-chloro-4-phenoxyphenyl)(4-(piperidin-4-ylamino)-1H-pyrrolo[2,3-b]pyridin-3-yl)methanone]: 9.5 nM; `O=C(c1ccc(Oc2ccccc2)cc1Cl)c1c[nH]c2nccc(N[C@@H]3CCCNC3)c12` [Compound I-23, (R)-(2-chloro-4-phenoxyphenyl)(4-(piperidin-3-ylamino)-1H-pyrrolo[2,3-b]pyridin-3-yl)methanone]: 48 nM. The same measure, in the same setting: the result for `O=C(c1ccc(Oc2ccccc2)cc1Cl)c1c[nH]c2nccc(N[C@H]3CC[C@H](O)CC3)c12` [Compound I-24, (2-chloro-4-phenoxyphenyl)(4-(((1r, 4r)-4-hydroxycyclohexyl)amino)-1H-pyrrolo[2,3-b]pyridin-3-yl)methanone] reads 52 nM. Still for that read-out and setting: next, `O=C(c1ccc(Oc2ccccc2)cc1Cl)c1c[nH]c2nccc(NCCOCCO)c12` [Compound I-28, (2-chloro-4-phenoxyphenyl)(4-((2-(2-hydroxyethoxy)ethyl)amino)-1H-pyrrolo[2,3-b]pyridin-3-yl)methanone]: 110 nM. Consider `O=C(c1ccc(Oc2ccccc2)cc1Cl)c1c[nH]c2nccc(N[C@H]3CC[C@H](CO)CC3)c12` [Compound I-30, (2-chloro-4-phenoxyphenyl)(4-(((1r, 4r)-4-(hydroxymethyl)cyclohexyl)amino)-1H-pyrrolo[2,3-b]pyridin-3-yl)methanone], for which the IC50 at BTK kinase was 95 nM. The same measure, in the same setting: next, `O=C(c1ccc(Oc2ccccc2)cc1Cl)c1c[nH]c2nccc(N[C@H]3CC[C@@H](CO)CC3)c12` [Compound I-31, (2-chloro-4-phenoxyphenyl)(4-(((1s, 4s)-4-(hydroxymethyl)cyclohexyl)amino)-1H-pyrrolo[2,3-b]pyridin-3-yl)methanone]: 28 nM. Still for that read-out and setting: next, `O=C(c1ccc(Oc2ccccc2)cc1Cl)c1c[nH]c2nccc(N[C@@H]3CC[C@@H](CO)OC3)c12` [Compound I-32, (2-chloro-4-phenoxyphenyl)(4-(((3R, 6S)-6-(hydroxymethyl)tetrahydro-2H-pyran-3-yl)amino)-1H-pyrrolo[2,3-b]pyridin-3-yl)methanone]: 11 nM; `O=C(c1ccc(Oc2ccccc2)cc1)c1c[nH]c2nccc(N[C@H]3CC[C@@H](CO)CC3)c12` [Compound I-33, (4-(((1s, 4s)-4-(hydroxymethyl)cyclohexyl)amino)-1H-pyrrolo[2,3-b]pyridin-3-yl)(4-phenoxyphenyl)methanone]: 80 nM.

For `CNC(=O)[C@H]1CC[C@H](Nc2ccnc3[nH]cc(C(=O)c4ccc(Oc5ccccc5)cc4Cl)c23)CC1` [Compound I-35, (1r, 4r)-4-((3-(2-chloro-4-phenoxybenzoyl)-1H-pyrrolo[2,3-b]pyridin-4-yl)amino)-N-methylcyclohexane-1-carboxamide], at BTK kinase, the IC50 stood at 22 nM. Same read-out and setting: the result for `NS(=O)(=O)N1CCC(Nc2ccnc3[nH]cc(C(=O)c4ccc(Oc5ccccc5)cc4Cl)c23)CC1` [Compound I-37, 4-((3-(2-chloro-4-phenoxybenzoyl)-1H-pyrrolo[2,3-b]pyridin-4-yl)amino)piperidin-1-sulfonamide] reads 141 nM; that for `CS(=O)(=O)N1CCC(Nc2ccnc3[nH]cc(C(=O)c4ccc(Oc5ccccc5)cc4Cl)c23)CC1` [Compound I-38, (2-chloro-4-phenoxyphenyl)(4-((1-(methanesulfonyl)piperidin-4-yl)amino)-1H-pyrrolo[2,3-b]pyridin-3-yl)methanone], 242 nM. Same read-out and setting: the result for `N[C@H]1CC[C@H](Nc2ccnc3[nH]cc(C(=O)c4ccc(Oc5ccccc5)cc4Cl)c23)CC1` [Compound I-73, (4-(((1r, 4r)-4-aminocyclohexyl)amino)-1H-pyrrolo[2,3-b]pyridin-3-yl)(2-chloro-4-phenoxyphenyl)methanone] reads 16 nM.

As to `N[C@H]1CC[C@@H](Nc2ccnc3[nH]cc(C(=O)c4ccc(Oc5ccccc5)cc4Cl)c23)CC1` [Compound I-74, (4-(((1s, 4s)-4-aminocyclohexyl)amino)-1H-pyrrolo[2,3-b]pyridin-3-yl)(2-chloro-4-phenoxyphenyl)methanone], the IC50 in assay [1] stood at 52 nM; in the assay on TMD8 cells, 65.9 nM; on BTK kinase it was 2.8 nM. Consider `CC(=O)N[C@H]1CC[C@@H](Nc2ccnc3[nH]cc(C(=O)c4ccc(Oc5ccccc5)cc4Cl)c23)CC1` [Compound I-87, N-((1s, 4s)-4-((3-(2-chloro-4-phenoxybenzoyl)-1H-pyrrolo[2,3-b]pyridin-4-yl)amino)cyclohexyl)acetamide], for which the results for the IC50 (in assay [1]; in the assay with TMD8 cells) were 103 nM and 114 nM, respectively. On the same counts, the results for `CN[C@H]1CC[C@@H](Nc2ccnc3[nH]cc(C(=O)c4ccc(Oc5ccccc5)cc4Cl)c23)CC1` [Compound I-89] are 68.6 nM and 97.7 nM.
